Measurements published in patent US20240299299A1, “COMPOSITIONS AND METHODS FOR INCREASING THE EFFICACY OF IMMUNOTHERAPIES AND VACCINES” (The Regents of the University of Michigan, priority 2021, published 2024).

Tests used:
OT-I CD8+ T cells [1] = assay: In vitro central memory (Tcm) differentiation of OT-I CD8+ T cells activated with SIINFEKL peptide and IL-2 with metabolites; type: cell-based, mice; details: day 8; metabolite-supplemented medium (arginine 3 mM, 3-methylhistidine 3 mM, DHB 100 μM, sodium ferulate 100 μM)
Protocol: (§1) FIG. 2: a) OT-I CD8+ T cells were cultured with different metabolites in vitro as indicated, b,c) shown is the frequency of CD44^+CD62L^+ Tcm CD8+ T cells on day 8. d) OT-I CD8+ T cells were activated with α-CD3/α-CD28 antibodies in presence of metabolites as indicated and shown is the Tcm CD8+ T cells on day 7. Data represent the mean±s.e.m. (n=5).
(§2) Splenocytes from OT-I mice were obtained aseptically. The cells were cultured in 96-well plates (1×10^5 cells per well). For Tcm differentiation study, cells were activated with SIINFEKL peptide (4×10^−9M) in the presence of various metabolites (arginine: 3 mM; 3-methylhistidine: 3 mM; N-acetylneuraminate: 100 μM; disodium sebacate: 100 μM; DHB: 100 μM; pantothenate: 100 μM; γ-aminobutyric acid: 100 μM; glycerol: 100 μM; AICAR: 100 μM, sodium ferulate: 100 μM) for 3 days. Then cells were washed three times with T-cell medium and further cultured with IL-2 (10 ng ml^−1; PeproTech) in the presence of metabolites for 5 days. The cells were then washed twice and re-activated with SIINFEKL peptide (10 μM) for 2 h. The suspension cells were collected, blocked with CD16/32 antibody and stained with the fixable viability dye eFluor 450, FITC-CD44 rat anti-human/mouse and PE-CD62L monoclonal antibody. To test if the central memory CD8+ T cells differentiation is dependent on dendritic cells, CD8 T cells isolated from the spleen in OT-I mice were incubated in the 96-well plate, which was precoated with anti-hamster IgG antibody. […] (1 μg mL^−1) and IL-2 (100 U mL^−1) were added into each well in the presence of 3-methylhistidine (3 mM), DHB (100 μM), or sodium ferulate (100 μM) for 2 days. Then cells were washed for three times to remove α-CD3/α-CD28 antibodies and further incubated with metabolites and IL-2 (10 ng ml^−1) for 5 days. Thereafter, cells were collected for central memory CD8^+ T cells analysis. For CD8^+ T cells survival study, cells were activated with antigen peptide as above, following with thoroughly washing, and incubation in presence of IL-2 for 2 days. Metabolites were added during this incubation (arginine: 3 mM, 1 mM; 3-methylhistidine: 3 mM, 1 mM, 500 μM, 100 μM; N-acetylneuraminate: 100 μM; disodium sebacate: 100 μM; DHB: 100 μM, 50 μM, 20 μM; pantothenate: 100 μM; γ-aminobutyric acid: 100 μM; glycerol: 100 μM; AICAR: 100 μM). Then cells were further incubated in absence of both IL-2 and metabolites for 36 h to induce the apoptosis/dead. For Tcf1^+CD8^+ differentiation study, cells were activated with antigen peptide as above, followed by thoroughly washing, and incubation with metabolites in presence of IL-2 for 3 days. […] Tcf1^+CD8^+, CD44^+CD62L^+CD8^+ and survival (stained with Annexin V-APC and PI) T cells were detected via flow cytometry.

OT-I CD8+ T cells [2] = assay: Tcm differentiation of isolated OT-I CD8+ T cells activated with α-CD3/α-CD28 in the absence of dendritic cells; type: cell-based, mice; details: α-CD3/α-CD28 activation; 3-methylhistidine 3 mM, DHB 100 μM; day 7
Protocol: as §1
Splenocytes from OT-I mice were obtained aseptically. The cells were cultured in 96-well plates (1×10^5 cells per well). For Tcm differentiation study, cells were activated with SIINFEKL peptide (4×10^−9M) in the presence of various metabolites (arginine: 3 mM; 3-methylhistidine: 3 mM; N-acetylneuraminate: 100 μM; disodium sebacate: 100 μM; DHB: 100 μM; pantothenate: 100 μM; γ-aminobutyric acid: 100 μM; glycerol: 100 μM; AICAR: 100 μM, sodium ferulate: 100 μM) for 3 days. Then cells were washed three times with T-cell medium and further cultured with IL-2 (10 ng ml^−1; PeproTech) in the presence of metabolites for 5 days. The cells were then washed twice and re-activated with SIINFEKL peptide (10 μM) for 2 h. The suspension cells were collected, blocked with CD16/32 antibody and stained with the fixable viability dye eFluor 450, FITC-CD44 rat anti-human/mouse and PE-CD62L monoclonal antibody. […] Tcf1^+CD8^+, CD44^+CD62L^+CD8^+ and survival (stained with Annexin V-APC and PI) T cells were detected via flow cytometry.

OT-I CD8+ T cells [3] = assay: Tcf1+CD8+ differentiation of OT-I T cells with metabolites; type: cell-based, mice; details: day 6
Protocol: FIG. 3: a) OT-I CD8+ T cells were cultured with different metabolites in vitro as indicated, b,c) shown are the frequency of the Tcf1^+CD8+ T cells and the representative flow cytometry plots on day 6. Data represent the mean±s.e.m. (n=5).
as §2, with “days.” for “days. Metabolites were added during this incubation (arginine: 3 mM, 1 mM; 3-methylhistidine: 3 mM, 1 mM, 500 μM, 100 μM; N-acetylneuraminate: 100 μM; disodium sebacate: 100 μM; DHB: 100 μM, 50 μM, 20 μM; pantothenate: 100 μM; γ-aminobutyric acid: 100 μM; glycerol: 100 μM; AICAR: 100 μM). Then cells were further incubated in absence of both IL-2 and metabolites for 36 h to induce the apoptosis/dead. For Tcf1^+CD8^+ differentiation study, cells were activated with antigen peptide as above, followed by thoroughly washing, and incubation with metabolites in presence of IL-2 for 3 days.”

OT-I CD8+ T cells [4] = assay: CD8+ T cell survival upon IL-2 withdrawal (Annexin V/PI); type: cell-based, mice; details: dependent on the dose of metabolites
Protocol: FIG. 4: a) OT-I CD8+ T cells were cultured with different metabolites in vitro as indicated, b,c) shown are the level of survival CD8+ T cells (Annexin V^−PI^−) as well as the representative flow cytometry plots on day 5.5. Data represent the mean±s.e.m. (n=5).
as §2, with “days.” for “days. Metabolites were added during this incubation (arginine: 3 mM, 1 mM; 3-methylhistidine: 3 mM, 1 mM, 500 μM, 100 μM; N-acetylneuraminate: 100 μM; disodium sebacate: 100 μM; DHB: 100 μM, 50 μM, 20 μM; pantothenate: 100 μM; γ-aminobutyric acid: 100 μM; glycerol: 100 μM; AICAR: 100 μM). Then cells were further incubated in absence of both IL-2 and metabolites for 36 h to induce the apoptosis/dead. For Tcf1^+CD8^+ differentiation study, cells were activated with antigen peptide as above, followed by thoroughly washing, and incubation with metabolites in presence of IL-2 for 3 days.”

[5] = tested on: CT26 colon carcinoma cells; assay: CT26 tumor model, intratumoral metabolites plus α-PD-1; type: in vivo, BALB/c mice
Protocol: FIG. 5: a) Therapeutic treatment regimen. BALB/c mice were s.c. inoculated with 1.5×10^5 CT26 colon carcinoma cells. The candidate metabolites were injected intratumorally every other day, 100 μg α-PD-1 was i.p. injected on days 9, 12, 16 and 20. b) Average tumor growth, c) individual tumor growth, and d) overall Kaplan-Meier survival are shown. Data represent the mean±s.e.m. (n=5).
(§3) Animals were cared for following the federal, state and local guidelines. All work conducted on animals was in accordance with and approved by the Institutional Animal Care and Use Committee (IACUC). Female (6-8 weeks old) BALB/c mice from Jackson Laboratory were inoculated with 1.5×10^5 CT26 cells per mouse on the right flank by s.c. injection. Tumor-bearing mice were randomly assigned to different treatment groups. For intratumoral injection study, the mice were injected with 3-methylhistidine (dose: 1 mg per mouse), sodium hippurate (dose: 1 mg per mouse), disodium sebacate (dose: 1 mg per mouse), sodium ferulate (dose: 1 mg per mouse), or DHB (dose: 0.5 mg per mouse) in 40 μL PBS buffer for every other day. The mice were i.p. injected with α-PD-1 antibody (100 μg per dose; clone RMP1-14, Bioxcell) on days 9, 12, 16 and 20 post tumor inoculation. For oral administration study, the mice were injected with 3-methylhistidine (dose: 3 mg per mouse), sodium hippurate (dose: 3 mg per mouse), disodium sebacate (dose: 3 mg per mouse), sodium ferulate (dose: 3 mg per mouse), or DHB (dose: 2.4 mg per mouse) in PBS buffer for 3 times every 4 days. α-PD-1 was injected on days 10, 14, 18 and 22. The tumor size was measured, and the tumor volume was calculated as ½×(length×width^2). Tumor-bearing mice were euthanized when the tumor size reached 1.5 cm in any diameter or when the animals became moribund with severe weight loss (>20%) or tumor ulceration.

[6] = tested on: CT26 colon carcinoma cells; assay: CT26 tumor model, orally administered metabolites plus α-PD-1; type: in vivo, BALB/c mice; details: oral gavage 3 times every 4 days (DHB 2.4 mg, 3-methylhistidine 3 mg per mouse) plus α-PD-1 i.p.
Protocol: FIG. 6: a) Therapeutic treatment regimen. BALB/c mice were s.c. inoculated with 1.5×10^5 CT26 colon carcinoma cells. The candidate agents were orally administrated 3 times every 4 days, 100 μg α-PD-1 was injected i.p. on days 10, 14, 18 and 22. b) Average tumor growth, c) individual tumor growth. Data represent the mean±s.e.m. (n=4-5).
as §3, with “For oral administration study, the mice were injected with 3-methylhistidine (dose: 3 mg per mouse), sodium hippurate (dose: 3 mg per mouse), disodium sebacate (dose: 3 mg per mouse), sodium ferulate (dose: 3 mg per mouse), or DHB (dose: 2.4 mg per mouse) in PBS buffer for 3 times every 4 days. α-PD-1 was injected on days 10, 14, 18 and 22.” left out, “Tumor-bearing mice were euthanized when the tumor size reached 1.5 cm in any diameter or when the animals became moribund with severe weight loss (>20%) or tumor ulceration.” left out

[7] = tested on: activated T cells, MC38, B16F10, and CT26 tumor cells; assay: In vitro cell viability of DHB at various concentrations; type: cell-based; details: concentration below 1 mM
Protocol: (§4) FIG. 7: a-d) In vitro cell viability of DHB at various concentrations in activated T cells, MC38, B16F10, and CT26 tumor cells. e) BALB/c mice were s.c. inoculated with 1.5×10^5 CT26 colon carcinoma cells. DHB (2.4 mg per dose) or 3-methylhistidine (3 mg per dose) was i.p. injected 3 times every 4 days, 100 μg α-PD-1 was i.p. injected on days 11, 15, and 20. Shown is the average tumor growth. Data represent the mean±s.e.m. (n=4-5).

[8] = tested on: CT26 colon carcinoma cells; assay: CT26 tumor model, metabolite monotherapy i.p. without α-PD-1; type: in vivo, BALB/c mice; details: monotherapy without α-PD-1 IgG; i.p. DHB 2.4 mg or 3-methylhistidine 3 mg per dose
Protocol: as §4

[9] = tested on: CT26 colon carcinoma cells; assay: CT26 tumor model, oral prodrug #717 plus α-PD-1; type: in vivo, BALB/c mice; details: 2 mg per dose every other day starting day 8
Protocol: FIG. 10: BALB/c mice were s.c. inoculated with 1.5×10^5 CT26 colon carcinoma cells. The prodrug #717 (2 mg per dose) were orally administrated every other day starting day 8. 100 μg α-PD-1 was injected i.p. on days 11 and 16. Shown is the average tumor growth. Data represent the mean±s.e.m. (n=5).

Row | SMILES | differentiation of CD44+CD62L+ central memory CD8+ T cells (OT-I CD8+ T cells [1]) | induction of central memory CD8+ T cells in the absence of dendritic cells (OT-I CD8+ T cells [2]) | frequency of Tcf1+CD8+ T cells (OT-I CD8+ T cells [3]) | survival of activated CD8+ T cells (OT-I CD8+ T cells [4]) | systemic antitumor efficacy of α-PD-1 treatment and CT26 tumor growth ([5]; intratumoral every other day (DHB 0.5 mg, 3-methylhistidine 1 mg per mouse) plus α-PD-1 i.p.) | tumor-free mice on day 70 ([5]; intratumoral metabolite plus α-PD-1 i.p.) [%] | efficacy of α-PD-1 treatment [6] | cell toxicity [7] | tumor growth in vivo [8] | synergy with α-PD-1 against tumor growth in vivo [9]
1 | O=C(O)c1ccc(O)c(O)c1 [DHB, 3,4-dihydroxybenzoate] | significantly increased the differentiation | can also induce central memory CD8^+ T cells | increased the frequency | significantly increased the survival | improved the systemic antitumor efficacy of α-PD-1 treatment and slowed down the CT26 tumors growth | 80 | improved the efficacy of α-PD-1 treatment | low cell toxicity | did not inhibit the tumor growth | 
2 | COC(=O)[C@H](Cc1cncn1C)NC(=O)OC(C)(C)C [Prodrug #717, methyl Na-(tert-butoxycarbonyl)-Np-methyl-L-histidinate] |  |  |  |  |  |  |  |  |  | did not synergize
